{
  "source": "ChEMBL document CHEMBL1154749",
  "about": "“P2'-truncated BACE-1 inhibitors with a novel hydroxethylene-like core” (Eur J Med Chem, 2010)",
  "data": [
    {"target": "Beta-secretase 1 (Homo sapiens, UniProt P56817)", "sequence (P56817 whole entry)": "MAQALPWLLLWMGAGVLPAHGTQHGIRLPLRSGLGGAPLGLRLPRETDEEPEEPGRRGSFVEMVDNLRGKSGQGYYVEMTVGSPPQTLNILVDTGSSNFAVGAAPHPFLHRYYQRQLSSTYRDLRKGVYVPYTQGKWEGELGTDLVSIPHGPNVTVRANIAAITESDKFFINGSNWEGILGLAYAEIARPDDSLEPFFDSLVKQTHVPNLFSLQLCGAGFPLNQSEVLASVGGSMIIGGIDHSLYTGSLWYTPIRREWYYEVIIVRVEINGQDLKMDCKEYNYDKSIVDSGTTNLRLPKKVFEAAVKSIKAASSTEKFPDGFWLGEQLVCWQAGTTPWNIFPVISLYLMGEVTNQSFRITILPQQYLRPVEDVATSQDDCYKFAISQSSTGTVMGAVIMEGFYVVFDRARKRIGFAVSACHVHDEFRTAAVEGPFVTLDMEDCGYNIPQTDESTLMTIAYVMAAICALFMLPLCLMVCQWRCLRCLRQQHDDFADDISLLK", "test": "Inhibition of human brain BACE1 expressed in Escherichia coli BL21(DE) by TRF assay", "units": {"IC50": "nM"}, "values": [
      {"smiles": "COc1ccc(COC[C@@H](C[C@H](O)[C@H](COc2cc(F)cc(F)c2)NC(=O)c2cc(C(=O)N[C@H](C)c3ccccc3)cc(N(C)S(C)(=O)=O)c2)OC)cc1", "IC50": 140},
      {"smiles": "C=CCOC[C@@H](C[C@H](O)[C@H](COc1cc(F)cc(F)c1)NC(=O)c1cc(C(=O)N[C@H](C)c2ccccc2)cc(N(C)S(C)(=O)=O)c1)OC", "IC50": 2030},
      {"smiles": "CO[C@@H](CNc1ccc(F)cc1)C[C@H](O)[C@H](COc1cc(F)cc(F)c1)NC(=O)c1cc(C(=O)N[C@H](C)c2ccccc2)cc(N(C)S(C)(=O)=O)c1", "IC50": 1500},
      {"smiles": "CO[C@@H](CNCc1ccccc1)C[C@@H](O)[C@H](COc1cc(F)cc(F)c1)NC(=O)c1cc(C(=O)N[C@H](C)c2ccccc2)cc(N(C)S(C)(=O)=O)c1", "IC50": "> 10000"},
      {"smiles": "CO[C@@H](CO)C[C@H](O)[C@H](COc1cc(F)cc(F)c1)NC(=O)c1cc(C(=O)N[C@H](C)c2ccccc2)cc(N(C)S(C)(=O)=O)c1", "IC50": "> 10000"},
      {"smiles": "CO[C@@H](CNCc1ccccc1)C[C@H](O)[C@H](COc1cc(F)cc(F)c1)NC(=O)c1cc(C(=O)N[C@H](C)c2ccccc2)cc(N(C)S(C)(=O)=O)c1", "IC50": "> 10000"},
      {"smiles": "CO[C@@H](COC(C)C)C[C@H](O)[C@H](COc1cc(F)cc(F)c1)NC(=O)c1cc(C(=O)N[C@H](C)c2ccccc2)cc(N(C)S(C)(=O)=O)c1", "IC50": 480},
      {"smiles": "CCc1cn2c3c(ccc(C(=O)N[C@@H](COc4cc(F)cc(F)c4)[C@@H](O)C[C@H](COCc4ccc(OC)cc4)OC)c13)N(C)S(=O)(=O)CC2", "IC50": 1500},
      {"smiles": "CO[C@@H](COc1ccccc1)C[C@H](O)[C@H](COc1cc(F)cc(F)c1)NC(=O)c1cc(C(=O)N[C@H](C)c2ccccc2)cc(N(C)S(C)(=O)=O)c1", "IC50": 6500},
      {"smiles": "CO[C@@H](COCc1ccc(F)cc1)C[C@H](O)[C@H](COc1cc(F)cc(F)c1)NC(=O)c1cc(C(=O)N[C@H](C)c2ccccc2)cc(N(C)S(C)(=O)=O)c1", "IC50": "> 10000"},
      {"smiles": "COC[C@@H](C[C@H](O)[C@H](COc1cc(F)cc(F)c1)NC(=O)c1cc(C(=O)N[C@H](C)c2ccccc2)cc(N(C)S(C)(=O)=O)c1)OC", "IC50": "> 10000"},
      {"smiles": "CO[C@@H](COCC1CC1)C[C@H](O)[C@H](COc1cc(F)cc(F)c1)NC(=O)c1cc(C(=O)N[C@H](C)c2ccccc2)cc(N(C)S(C)(=O)=O)c1", "IC50": 1860},
      {"smiles": "COc1cccc(COC[C@@H](C[C@H](O)[C@H](COc2cc(F)cc(F)c2)NC(=O)c2cc(C(=O)N[C@H](C)c3ccccc3)cc(N(C)S(C)(=O)=O)c2)OC)c1", "IC50": "> 10000"},
      {"smiles": "CO[C@@H](COCc1ccccc1)C[C@H](O)[C@H](COc1cc(F)cc(F)c1)NC(=O)c1cc(C(=O)N[C@H](C)c2ccccc2)cc(N(C)S(C)(=O)=O)c1", "IC50": 240},
      {"smiles": "CO[C@@H](CNc1ccccc1)C[C@H](O)[C@H](COc1cc(F)cc(F)c1)NC(=O)c1cc(C(=O)N[C@H](C)c2ccccc2)cc(N(C)S(C)(=O)=O)c1", "IC50": 1500},
      {"smiles": "COc1ccc(COC[C@@H](C[C@H](O)[C@H](COc2cc(F)cc(F)c2)NC(=O)c2cc(N(C)C[C@H]3C[C@@H]3C)nc(N(C)S(C)(=O)=O)c2)OC)cc1", "IC50": 1800}
    ]}
  ]
}
